Results as given in the CheMixHub viscosity set.
± gives the uncertainty stated by the source.

Test: xn = mol fraction of the nth substance listed

ClC(Cl)=C(Cl)Cl + ClC(Cl)(Cl)Cl
Conditions | viscosity [mPa·s]
298.15 K, 101 kPa, x2 = 0.0973 | 0.8311 ± 0.0071
298.15 K, 101 kPa, x2 = 0.1594 | 0.8241 ± 0.007
298.15 K, 101 kPa, x2 = 0.244 | 0.8182 ± 0.007
298.15 K, 101 kPa, x2 = 0.3103 | 0.8153 ± 0.0069
298.15 K, 101 kPa, x2 = 0.4139 | 0.813 ± 0.0069
298.15 K, 101 kPa, x2 = 0.4636 | 0.8122 ± 0.0069
298.15 K, 101 kPa, x2 = 0.5633 | 0.814 ± 0.0069
298.15 K, 101 kPa, x2 = 0.63 | 0.8216 ± 0.007
298.15 K, 101 kPa, x2 = 0.6339 | 0.8211 ± 0.007
298.15 K, 101 kPa, x2 = 0.7582 | 0.8392 ± 0.0071
298.15 K, 101 kPa, x2 = 0.8067 | 0.8482 ± 0.0072
298.15 K, 101 kPa, x2 = 0.9135 | 0.8744 ± 0.0074
303.15 K, 101.33 kPa, x1 = 0.3238 | 0.818 ± 0.007
303.15 K, 101.33 kPa, x1 = 0.402 | 0.814 ± 0.007
303.15 K, 101.33 kPa, x1 = 0.56 | 0.808 ± 0.007
303.15 K, 101.33 kPa, x1 = 0.6543 | 0.801 ± 0.007
303.15 K, 101.33 kPa, x1 = 0.7629 | 0.8 ± 0.007
303.15 K, 101.33 kPa, x1 = 0.8308 | 0.798 ± 0.007
303.15 K, 101.33 kPa, x1 = 0.9128 | 0.797 ± 0.007

[Li+].[OH-] + O
viscosity [mPa·s], 101 kPa
Conditions | x1 = 0.0089 | x1 = 0.02284 | x1 = 0.0263 | x1 = 0.0385 | x1 = 0.0513 | x1 = 0.075 | x1 = 0.0776 | x1 = 0.08062
298.15 K | – | 1.245 ± 0.037 | – | 1.602 ± 0.048 | – | – | – | 3.29 ± 0.099
308.15 K | – | 0.996 ± 0.03 | – | 1.261 ± 0.038 | – | – | – | 2.467 ± 0.074
323.15 K | 0.609 ± 0.018 | 0.748 ± 0.022 | 0.778 ± 0.024 | 0.931 ± 0.028 | 1.114 ± 0.034 | 1.596 ± 0.047 | 1.66 ± 0.04 | 1.743 ± 0.052

CCCCCO + c1ccccc1
Conditions | viscosity [mPa·s]
293.15 K, 101.33 kPa, x1 = 0.0659 | 0.671 ± 0.009
293.15 K, 101.33 kPa, x1 = 0.1351 | 0.715 ± 0.009
293.15 K, 101.33 kPa, x1 = 0.218 | 0.791 ± 0.01
293.15 K, 101.33 kPa, x1 = 0.2928 | 0.876 ± 0.011
293.15 K, 101.33 kPa, x1 = 0.4304 | 1.127 ± 0.014
293.15 K, 101.33 kPa, x1 = 0.5061 | 1.307 ± 0.016
293.15 K, 101.33 kPa, x1 = 0.58 | 1.532 ± 0.018
293.15 K, 101.33 kPa, x1 = 0.6971 | 2.016 ± 0.024
293.15 K, 101.33 kPa, x1 = 0.729 | 2.159 ± 0.025
293.15 K, 101.33 kPa, x1 = 0.8032 | 2.568 ± 0.029
293.15 K, 101.33 kPa, x1 = 0.8704 | 3.014 ± 0.034
293.15 K, 101.33 kPa, x1 = 0.9454 | 3.594 ± 0.04
298.15 K, 101 kPa, x1 = 0.04 | 0.616 ± 0.016
298.15 K, 101 kPa, x1 = 0.09 | 0.641 ± 0.017
298.15 K, 101 kPa, x1 = 0.14 | 0.669 ± 0.018
298.15 K, 101 kPa, x1 = 0.18 | 0.709 ± 0.019
298.15 K, 101 kPa, x1 = 0.37 | 0.936 ± 0.025
298.15 K, 101 kPa, x1 = 0.47 | 1.132 ± 0.03
298.15 K, 101 kPa, x1 = 0.57 | 1.36 ± 0.036
298.15 K, 101 kPa, x1 = 0.78 | 1.963 ± 0.051

CCCCCO + CCCCCCC
Conditions | viscosity [mPa·s]
293.15 K, 100 kPa, x2 = 0.0249 | 3.71 ± 0.044
293.15 K, 100 kPa, x2 = 0.081 | 3.099 ± 0.037
293.15 K, 100 kPa, x2 = 0.1471 | 2.521 ± 0.03
293.15 K, 100 kPa, x2 = 0.259 | 1.798 ± 0.022
293.15 K, 100 kPa, x2 = 0.3365 | 1.429 ± 0.018
293.15 K, 100 kPa, x2 = 0.3987 | 1.196 ± 0.015
293.15 K, 100 kPa, x2 = 0.4734 | 0.975 ± 0.013
293.15 K, 100 kPa, x2 = 0.5627 | 0.776 ± 0.01
293.15 K, 100 kPa, x2 = 0.6484 | 0.641 ± 0.009
293.15 K, 100 kPa, x2 = 0.734 | 0.544 ± 0.008
293.15 K, 100 kPa, x2 = 0.8184 | 0.474 ± 0.007
293.15 K, 100 kPa, x2 = 0.9043 | 0.42 ± 0.007
293.2 K, 101 kPa, x1 = 0.3 | 0.655 ± 0.045
293.8 K, 101 kPa, x1 = 0.5 | 0.924 ± 0.06
293.9 K, 101 kPa, x1 = 0.051 | 0.491 ± 0.036
298.15 K, 100 kPa, x2 = 0.0249 | 3.218 ± 0.038
298.15 K, 100 kPa, x2 = 0.081 | 2.702 ± 0.032
298.15 K, 100 kPa, x2 = 0.1471 | 2.211 ± 0.027
298.15 K, 100 kPa, x2 = 0.259 | 1.591 ± 0.02
298.15 K, 100 kPa, x2 = 0.3365 | 1.277 ± 0.016
298.15 K, 100 kPa, x2 = 0.3987 | 1.076 ± 0.014
298.15 K, 100 kPa, x2 = 0.4734 | 0.884 ± 0.012
298.15 K, 100 kPa, x2 = 0.5627 | 0.712 ± 0.01
298.15 K, 100 kPa, x2 = 0.6484 | 0.594 ± 0.008
298.15 K, 100 kPa, x2 = 0.734 | 0.507 ± 0.008
298.15 K, 100 kPa, x2 = 0.8184 | 0.445 ± 0.007
298.15 K, 100 kPa, x2 = 0.9043 | 0.396 ± 0.006
298.15 K, 101.33 kPa, x1 = 0.0652 | 0.4117 ± 0.0039
298.15 K, 101.33 kPa, x1 = 0.1304 | 0.4449 ± 0.0041
298.15 K, 101.33 kPa, x1 = 0.2489 | 0.5244 ± 0.0047
298.15 K, 101.33 kPa, x1 = 0.3595 | 0.6427 ± 0.0056
298.15 K, 101.33 kPa, x1 = 0.4654 | 0.8116 ± 0.007
298.15 K, 101.33 kPa, x1 = 0.5682 | 1.041 ± 0.0089
298.15 K, 101.33 kPa, x1 = 0.6617 | 1.338 ± 0.011
298.15 K, 101.33 kPa, x1 = 0.7552 | 1.713 ± 0.015
298.15 K, 101.33 kPa, x1 = 0.8805 | 2.418 ± 0.021
298.15 K, 101.33 kPa, x1 = 0.9606 | 3.057 ± 0.028
303.15 K, 100 kPa, x2 = 0.0249 | 2.804 ± 0.033
303.15 K, 100 kPa, x2 = 0.081 | 2.365 ± 0.028
303.15 K, 100 kPa, x2 = 0.1471 | 1.945 ± 0.024
303.15 K, 100 kPa, x2 = 0.259 | 1.415 ± 0.018
303.15 K, 100 kPa, x2 = 0.3365 | 1.145 ± 0.015
303.15 K, 100 kPa, x2 = 0.3987 | 0.971 ± 0.013
303.15 K, 100 kPa, x2 = 0.4734 | 0.805 ± 0.011
303.15 K, 100 kPa, x2 = 0.5627 | 0.655 ± 0.009
303.15 K, 100 kPa, x2 = 0.6484 | 0.551 ± 0.008
303.15 K, 100 kPa, x2 = 0.734 | 0.474 ± 0.007
303.15 K, 100 kPa, x2 = 0.8184 | 0.417 ± 0.007
303.15 K, 100 kPa, x2 = 0.9043 | 0.371 ± 0.006
308.15 K, 100 kPa, x2 = 0.0249 | 2.453 ± 0.029
308.15 K, 100 kPa, x2 = 0.081 | 2.08 ± 0.025
308.15 K, 100 kPa, x2 = 0.1471 | 1.72 ± 0.021
308.15 K, 100 kPa, x2 = 0.259 | 1.262 ± 0.016
308.15 K, 100 kPa, x2 = 0.3365 | 1.03 ± 0.013
308.15 K, 100 kPa, x2 = 0.3987 | 0.879 ± 0.012
308.15 K, 100 kPa, x2 = 0.4734 | 0.739 ± 0.01
308.15 K, 100 kPa, x2 = 0.5627 | 0.604 ± 0.009
308.15 K, 100 kPa, x2 = 0.6484 | 0.515 ± 0.008
308.15 K, 100 kPa, x2 = 0.734 | 0.438 ± 0.007
308.15 K, 100 kPa, x2 = 0.8184 | 0.39 ± 0.006
308.15 K, 100 kPa, x2 = 0.9043 | 0.349 ± 0.006
308.15 K, 101.33 kPa, x1 = 0.0652 | 0.368 ± 0.0035
308.15 K, 101.33 kPa, x1 = 0.1304 | 0.3956 ± 0.0037
308.15 K, 101.33 kPa, x1 = 0.2489 | 0.4627 ± 0.0042
308.15 K, 101.33 kPa, x1 = 0.3595 | 0.5523 ± 0.0049
308.15 K, 101.33 kPa, x1 = 0.4654 | 0.6821 ± 0.0059
308.15 K, 101.33 kPa, x1 = 0.5682 | 0.841 ± 0.0072
308.15 K, 101.33 kPa, x1 = 0.6617 | 1.062 ± 0.009
308.15 K, 101.33 kPa, x1 = 0.7552 | 1.353 ± 0.011
308.15 K, 101.33 kPa, x1 = 0.8805 | 1.931 ± 0.017
308.15 K, 101.33 kPa, x1 = 0.9606 | 2.382 ± 0.021
313.15 K, 100 kPa, x2 = 0.0249 | 2.155 ± 0.026
313.15 K, 100 kPa, x2 = 0.081 | 1.836 ± 0.022
313.15 K, 100 kPa, x2 = 0.1471 | 1.526 ± 0.019
313.15 K, 100 kPa, x2 = 0.259 | 1.132 ± 0.014
313.15 K, 100 kPa, x2 = 0.3365 | 0.936 ± 0.012
313.15 K, 100 kPa, x2 = 0.3987 | 0.798 ± 0.011
313.15 K, 100 kPa, x2 = 0.4734 | 0.674 ± 0.009
313.15 K, 100 kPa, x2 = 0.5627 | 0.557 ± 0.008
313.15 K, 100 kPa, x2 = 0.6484 | 0.485 ± 0.007
313.15 K, 100 kPa, x2 = 0.734 | 0.414 ± 0.007
313.15 K, 100 kPa, x2 = 0.8184 | 0.366 ± 0.006
313.15 K, 100 kPa, x2 = 0.9043 | 0.327 ± 0.006

C=COCCCC + COC(=O)c1ccccc1
viscosity [mPa·s], 100 kPa
Conditions | x2 = 0.0898 | x2 = 0.1468 | x2 = 0.228 | x2 = 0.3145 | x2 = 0.4054 | x2 = 0.5056 | x2 = 0.6161 | x2 = 0.7316 | x2 = 0.8597
303.15 K | 0.437 ± 0.018 | 0.497 ± 0.02 | 0.571 ± 0.023 | 0.657 ± 0.027 | 0.761 ± 0.031 | 0.891 ± 0.037 | 1.038 ± 0.042 | 1.205 ± 0.049 | 1.422 ± 0.058
308.15 K | 0.421 ± 0.017 | 0.478 ± 0.019 | 0.546 ± 0.022 | – | – | – | 0.974 ± 0.039 | 1.124 ± 0.046 | 1.319 ± 0.053
313.15 K | 0.4 ± 0.016 | 0.452 ± 0.018 | 0.515 ± 0.021 | 0.585 ± 0.024 | 0.671 ± 0.027 | 0.778 ± 0.032 | 0.897 ± 0.036 | 1.034 ± 0.042 | 1.205 ± 0.049
